The data set in a line: RCM stapling (C=C formation) of two bridgehead alkenyl ether chains of 7-azabicyclo[2.2.1]heptane amide dimers; Grubbs I, 5-7 mol% (about 2.5-3 mol% for 36), added dropwise over 10-15 min, reflux under Ar. The following applies: CH2Cl2, 1.0 mM, 40.0 °C.

For the setting “from C=CCCCCCOC[C@@]12CC[C@@H]([C@@H](C(=O)N3C4CCC3(COCCCCC=C)CC4)C1)N2C(=O)OC(C)(C)C, 21-membered ring, 2.0 h”, `CC(C)(C)OC(=O)N1[C@H]2CC[C@@]13COCCCCCC=CCCCCOCC14CCC(CC1)N4C(=O)[C@H]2C3` [4 -> 9 (C11)] returned a ring closure, isolated yield of 87%.

Turning to `CC(C)(C)OC(=O)N1[C@H]2CC[C@@]13COCCCCC=CCCCOCC14CCC(CC1)N4C(=O)[C@H]2C3` [2 -> 7 (C9)], the ring closure, isolated yield (from C=CCCCCOC[C@@]12CC[C@@H]([C@@H](C(=O)N3C4CCC3(COCCCC=C)CC4)C1)N2C(=O)OC(C)(C)C, 19-membered ring, 4.0 h) amounted to 80%.

On to `CC(C)(C)OC(=O)N1[C@H]2CC[C@@]13COCCCC=CCCCOCC14CCC(CC1)N4C(=O)[C@H]2C3` [1 -> 6 (C8)], for which, for the setting “from C=CCCCOCC12CCC(CC1)N2C(=O)[C@H]1C[C@@]2(COCCCC=C)CC[C@@H]1N2C(=O)OC(C)(C)C, 18-membered ring, 8.0 h”, the ring closure, isolated yield was 73%.

Compound `CC(C)(C)OC(=O)N1[C@H]2CC[C@@]13COCCCCCC=CCCCCCOCC14CCC(CC1)N4C(=O)[C@H]2C3` [5 -> 10 (C12)] came in with a ring closure, isolated yield (from C=CCCCCCOCC12CCC(CC1)N2C(=O)[C@H]1C[C@@]2(COCCCCCC=C)CC[C@@H]1N2C(=O)OC(C)(C)C, 22-membered ring, 16.0 h) of 64%.

The compound `CC(C)(C)OC(=O)N1[C@H]2CC[C@@]13COCCCCC=CCCCCOCC14CCC(CC1)N4C(=O)[C@H]2C3` [3 -> 8 (C10)] yielded a ring closure, isolated yield (from C=CCCCCOCC12CCC(CC1)N2C(=O)[C@H]1C[C@@]2(COCCCCC=C)CC[C@@H]1N2C(=O)OC(C)(C)C, 20-membered ring, 3.0 h) of 94%.

Regarding `Cc1ccc(S(=O)(=O)N2[C@H]3CC[C@@]24COCCCCC=CCCCCOCC25CCC(CC2)N5C(=O)[C@H]3C4)cc1` [36 -> Ts-8 (C10, N-Ts)], under “from C=CCCCCOCC12CCC(CC1)N2C(=O)[C@H]1C[C@@]2(COCCCCC=C)CC[C@@H]1N2S(=O)(=O)c1ccc(C)cc1, 20-membered ring, 1.0 h”, the ring closure, isolated yield was 91%.
